Compound `O=C(N[C@H]1CCCNC1=O)c1cccc(C(F)(F)F)c1` has a melting point of 148 to 150 °C.
Work on `O=C(O)c1ccc2c(c1)C=Cc1ccc(C(=O)O)cc1S2(=O)=O` yielded a melting point of 375 °C.
With `Cn1c(C(F)(F)F)cc(=O)n(-c2cc(OC(=O)Nc3cccc(C(F)(F)F)c3)c(Cl)cc2F)c1=O` the melting point was 153 to 155 °C.
In the case of `Cc1onc(-c2ccccc2)c1C(=O)NCCCCl`, the melting point is reported as 122 to 124 °C.
In the case of `OCc1ccc(Br)c(CO)c1`, the melting point is reported as 106 to 108 °C.
For `COC(=O)c1ccc(OCc2ccc3ccccc3n2)cc1C1(c2ccccc2)CC2CCC1C2` (stereo not drawn), the melting point was 106 to 107 °C.
In the case of `CC(C)(C)OC(=O)N1CCC(c2ccc(N3C[C@H](COS(C)(=O)=O)OC3=O)cc2F)CC1`, the melting point is reported as 163 to 165 °C.
Work on `CC(C)(O)C(=O)c1ccc(OCC2CO2)cc1` (stereo not drawn) yielded a melting point of 54 °C.
With `CCCCOCCOc1ccc(-c2ccc3c(c2)C=C(C(=O)Nc2ccc(SCc4ncon4)cc2)CCN3CC(C)C)cc1` the melting point was 112 to 115 °C.
Compound `COCOc1c(Br)cccc1-c1ccc2c(c1)C(C)(C)CCC2(C)C` has a melting point of 74 °C.
`CN1Cc2c(N)ncn2-c2ccccc2C1=O` gave a melting point of 202 to 204 °C.
For `O=C(OCN1C(=O)c2ccccc2S1(=O)=O)c1c(Cl)cncc1Cl`, the melting point was 159 to 160 °C.
Work on `CC1NC(=O)N(C)N=C1c1ccccc1` (stereo not drawn) yielded a melting point of 99.5 to 101 °C.
`O=C(NCCSSCCNC(=O)c1ccc(OC(F)(F)F)cc1)c1ccc(OC(F)(F)F)cc1` showed a melting point of 150 to 151 °C.
In the case of `CC(C)C=NNC1=NS(=O)(=O)c2ccccc21`, the melting point is reported as 225 °C.
`O=[N+]([O-])c1ccc(C(O)c2ccoc2)cc1` (stereo not drawn) showed a melting point of 50 to 52 °C.
`Cc1c(NC(=O)c2ccc(-c3ccc(F)cc3)cc2)ccc2cc(CN3CCCCCC3)cnc12` gave a melting point of 166 to 168 °C.
For `CN1CCCCc2[nH]c3ccccc3c2CC1`, the melting point was 128 to 131 °C.
Work on `CN(C)C=C(C=O)c1ccc(C(F)(F)F)cc1` yielded a melting point of 97 °C.
`CC1C(=O)N(c2ccc(S(N)(=O)=O)cc2Cl)CN1c1ccccc1` (stereo not drawn) gave a melting point of 202 °C.
`O=C(O)CC(CC(=O)O)c1cccc2oc3c(c12)CCCC3` gave a melting point of 176 to 181 °C.
Compound `Nc1cc(-n2cc(C(=O)O)c(=O)c3cc(F)c(N4CC(N)C4)nc32)c(F)cc1F` has a melting point of 168 to 170 °C.
With `COC(=O)c1cc(OC)c(NC(=O)OCc2ccccc2)c(OC)c1` the melting point was 132 to 133 °C.
`Clc1cccc(-c2onc3ccc(Br)cc23)c1` showed a melting point of 163 °C.
For `CCc1cn(C2CC(O)C(CNC(=O)c3ccccc3)O2)c(=O)[nH]c1=O` (stereo not drawn), the melting point was 246 to 247 °C.
In the case of `C=C(CC)C(=O)c1ccc(OC(C)C(=O)O)c(Cl)c1Cl` (stereo not drawn), the melting point is reported as 115 to 119 °C.
Compound `COC(=O)C(C)(C)OCc1cc(-c2ccc(Cl)s2)no1` has a melting point of 128 to 130 °C.
`OC1CCCc2nc3ccccc3c(NCc3cccc(C(F)(F)F)c3)c21` (stereo not drawn) gave a melting point of 154 to 155 °C.
Compound `CC(Oc1cc(Oc2ccc(C(F)(F)F)cc2Cl)ccc1[N+](=O)[O-])C(=O)OCn1cccn1` (stereo not drawn) has a melting point of 75 °C.
`O=C(c1ccccc1)N1CCc2nnc(NN=C3CCCCC3)cc2C1` gave a melting point of 188 to 191 °C.
`CC1(C)C(=O)N(C(=O)NCC2(O)CCN(CC3(C(=O)O)CCC3)CC2)c2cc(F)ccc21` gave a melting point of 159 °C.
With `CNC(=O)c1cc(-c2ccc(OC)cc2)nn(CC=C(C)C)c1=O` the melting point was 104 °C.
Work on `Clc1ccc(CC2(n3cncn3)CC2)cc1` yielded a melting point of 67 to 68 °C.
For `O=C(O)CCCc1cc2nc(Cl)ccc2n1S(=O)(=O)c1ccc2c(c1)OCO2`, the melting point was 160 °C.
In the case of `OC(CN1CC=C(c2ccccc2)CC1)c1ccc(Cc2ccc(Cl)cc2)cc1` (stereo not drawn), the melting point is reported as 135 to 137 °C.
Compound `CN(C)C=C1C(=O)N(c2cccc(C#N)c2)c2ccccc21` has a melting point of 140 to 143 °C.
With `CCNC1Cc2c[nH]c3ccc(OC)c(c23)C1(C)O` (stereo not drawn) the melting point was 185 to 187 °C.
Work on `COc1ccc(C(=O)c2cccc(Br)c2F)cc1` yielded a melting point of 88 to 90 °C.
Work on `COc1ccc(NN=C2CCC3(CC2)OCCO3)cc1` yielded a melting point of 168 to 169 °C.
For `Cc1cccc2[nH]c(S(=O)Cc3cccn4ccnc34)nc12` (stereo not drawn), the melting point was 166 to 168 °C.
In the case of `COc1nc2oc(-c3ccccc3)nc2cc1C`, the melting point is reported as 167 to 168 °C.
Compound `Cc1ccc2c(c1)c1cc(-c3ccc(Cl)cc3Cl)c(=O)n(C)c1n2CC#N` has a melting point of 270 °C.
`OCc1csc(NCc2ccccc2)n1` showed a melting point of 85 to 86.5 °C.
Compound `CCCCCCCCc1ccc(C=CCO)cc1` has a melting point of 30 °C.
With `CC(=O)SCC(Cc1ccccc1)C(=O)Nc1cc(C(=O)O)ccc1Cl` (stereo not drawn) the melting point was 204 to 206 °C.
`Cn1cc2c(n1)-c1sccc1N(C(=O)c1ccc(NC(=O)C3CCCCC3)cc1)CC2` showed a melting point of 240 to 242 °C.
With `Cc1cc(SC2=C(O)CC(CCC(C)C)(C3CCCC3)OC2=O)c(C(C)(C)C)cc1CO` (stereo not drawn) the melting point was 74 to 77 °C.
With `CC(=O)OC1CCCC(n2c(Br)nc3cc(Cl)c(Cl)cc32)C1OC(C)=O` (stereo not drawn) the melting point was 71 to 79 °C.
`CC(C)CN1CCCC[C@H]1CNc1nc(Oc2cccc3[nH]c(=O)c(N)nc23)cc(-c2ccc(C(F)(F)F)cc2)n1` showed a melting point of 228 °C.
`Cc1cc(O)c(S(=O)Cc2ccc(F)cc2)c(=O)o1` (stereo not drawn) gave a melting point of 127 to 128 °C.
`COc1cc(-c2ccc(S(C)(=O)=O)cc2)c(-c2ccc(F)cc2)c(C(F)(F)F)n1` showed a melting point of 166 to 168 °C.
Compound `O=C(O)c1ccc(C(=O)/C=C/c2ccc(-c3cncnc3)cc2)cc1` has a melting point of over 260 °C.
`N=C(NO)c1ccc(-c2ccc(O)c(-c3nc4cc(C(=N)NO)ccc4[nH]3)c2)cc1` showed a melting point of 319 to 322 °C.
Work on `Nc1ncnc2c1c(-c1cccc(CO)c1)nn2Cc1oc2ccccc2c(=O)c1-c1ccccc1` yielded a melting point of 219 to 223 °C.
Compound `Cc1cc(=O)[nH]c2ccc(OCCCN3CCN(Cc4ccc(Cl)cc4)CC3)cc12` has a melting point of 195 to 197 °C.
Compound `COc1ccc(C#Cc2ccc(OC3CN4CCC3CC4)cc2)cc1` (stereo not drawn) has a melting point of 112 to 115 °C.
For `CC(C)N1CC(CO)C(c2ccccc2)(c2ccccc2)C1=O` (stereo not drawn), the melting point was 159 to 161 °C.
For `N#Cc1cc(S(=O)(=O)c2ccc(N)cc2)cc(Br)n1`, the melting point was 186 to 188 °C.
Compound `O=C(Nc1cccc2c(-n3ccnc3)c(Br)cnc12)c1c(-n2ccnc2)cccc1-n1ccnc1` has a melting point of 175 to 185 °C.
Compound `CCCCn1nc2c(N)nc3ccccc3c2c1CC` has a melting point of 215 to 216 °C.
In the case of `OCc1cc(Cl)c(Cl)c(Cl)n1`, the melting point is reported as 82 to 83 °C.
Compound `Clc1cc(Cl)c2c(c1)CCC(c1ccccc1)O2` (stereo not drawn) has a melting point of 74 to 76 °C.
With `O=C(C(=O)c1cccc(OCc2ccccc2)c1)c1cc[nH]c1` the melting point was 124 to 125 °C.
Work on `CC(C)(C)c1cc(-c2nn(CC#N)c3ncccc23)cc(C(C)(C)C)c1O` yielded a melting point of 141 to 143 °C.
`CCCCOC(=O)[C@H]1CN(c2ccc(N3CCSCC3)cc2)C(=O)O1` gave a melting point of 95.5 to 98 °C.
With `COC(=O)C1=C(C)Nc2ccccc2SC1c1ccc([N+](=O)[O-])cc1` (stereo not drawn) the melting point was 150 to 152 °C.
With `O=C(NC(=O)C(Br)CBr)Nc1ccc(Cl)c(Cl)c1` (stereo not drawn) the melting point was 174 to 175 °C.
Compound `CN1CCC(O)(c2ccccc2C(O)c2ccccc2)CC1` (stereo not drawn) has a melting point of 190 to 191 °C.
In the case of `CC1(C)OC(C=Cc2ccc(F)cc2F)=CC1=O`, the melting point is reported as 98.5 to 100 °C.
For `COc1ccc2c(c1OC)C(=O)O[C@@H]2[C@H]1c2c(c(N=[N+]=[N-])c3c(c2OC)OCO3)CCN1C`, the melting point was 177 to 178 °C.
In the case of `COc1cc(C(=O)CCCN2CCC(OC(=O)c3cc(Cl)c(N)c4c3OC(C)(C)C4)CC2)cc(OC)c1OC`, the melting point is reported as 154 °C.
In the case of `CSC(C)(C)c1nnc(N)s1`, the melting point is reported as 195 to 197 °C.
In the case of `COc1ncnc(-c2cc([N+](=O)[O-])c(F)cc2F)c1C`, the melting point is reported as 114 to 117 °C.
For `CC1=C(c2ccccc2)CCC(=O)N1`, the melting point was 310 to 330 °C.
In the case of `COc1ccc2c(c1)C=C(/C=C/C=C/C=C/C(=O)O)CO2`, the melting point is reported as 250 to 252 °C.
Work on `NC(=NCC(F)(F)F)Nc1ccnc(CSCCN2C(=O)c3ccccc3C2=O)n1` yielded a melting point of 167 to 168 °C.
In the case of `CCCCCCCCCCCCCCc1ccc(O)cc1`, the melting point is reported as 70 to 71 °C.
In the case of `CCCCC(NC(=O)C(CC(C)C)NC(=O)COc1ccc2ccccc2c1)C(=O)CSCc1ccco1` (stereo not drawn), the melting point is reported as 87 to 89 °C.
In the case of `Cn1cnc(S(=O)(=O)NC(CN2CCOCC2)CN2CCOCC2)c1`, the melting point is reported as 191 to 192 °C.
With `CCOC(=O)C(C)Oc1ncn(-c2ccc(C)cc2)n1` (stereo not drawn) the melting point was 69 to 71 °C.
For `Cc1cc(CCCCC(=O)O)no1`, the melting point was 58 to 60 °C.
`Cn1cc(-c2ccccc2)c(=O)c(-c2cccs2)c1` showed a melting point of 147 to 148 °C.
In the case of `CSc1cc(-c2ccc(C(F)(F)F)cc2)ccc1C#N`, the melting point is reported as 128 to 129 °C.
`Cc1noc(C)c1-c1ccc(OC2SCC(O)C(O)C2O)c(F)c1` (stereo not drawn) showed a melting point of 140 °C.
For `CS(=O)(=O)c1ccc(-c2cc(-c3nc4ccccc4c(=O)n3-c3ccccc3)sc2N2CCOCC2)cc1`, the melting point was over 275 °C.
In the case of `COCCNc1nc(N)nc(-c2ccccc2)c1-c1ccc(=O)n(C(C)C)n1`, the melting point is reported as 168 to 170 °C.
`N#Cc1cnc2cnc(F)cc2c1Nc1ccc(F)c(Cl)c1` showed a melting point of 108 to 111 °C.
Work on `CC(CN(C(C)C)C(C)C)N1C(=O)/C(=N/NC(N)=O)c2ccccc21` (stereo not drawn) yielded a melting point of 195 to 197 °C.
With `Cc1cnc(-c2cc3c(OC[C@@H](O)CN4CCC(c5ccc6ccccc6c5)CC4)cccc3s2)o1` the melting point was 138 to 139 °C.
With `CCC(CC)/C(N)=C(\C#N)C(=O)Cl` the melting point was 102 °C.
For `COc1ccc(C(=O)N2C(=O)CCC2CCC(=O)OCc2ccccc2)cc1` (stereo not drawn), the melting point was 80 to 83 °C.
In the case of `CCN(CC)Cc1cnc2cc(NC(=O)c3ccc(-c4ccc(F)cc4)cc3)c(C)cc2c1`, the melting point is reported as 145 to 148 °C.
In the case of `COC(=O)c1cc(S(=O)(=O)N=CN(C)C)ccc1Cl`, the melting point is reported as 140 to 141 °C.
Work on `O=C(NN1CCCCC1)C1CN(c2ccc(Cl)cc2)C(c2ccc(Cl)cc2Cl)=N1` (stereo not drawn) yielded a melting point of 113 to 116 °C.
With `CCc1nc2ccccc2c(=O)n1-c1ccccc1C` the melting point was 93 to 94 °C.
`CC(=O)NC(Cc1ccc(Cl)c(Cl)c1)C(=O)OCc1cc(C)cc(C)c1` (stereo not drawn) showed a melting point of 118 to 119 °C.
`CCOc1ccc(S(C)(=O)=O)cc1C(=O)Nc1c(C(N)=O)nn(CCOC)c1CC` showed a melting point of 190 to 192 °C.
`Cc1cccc2c1C(=O)c1c-2csc1N` showed a melting point of 196 to 198 °C.
Work on `COc1cccc2nc(-c3ccc(OCCO)c(-c4ccc(S(C)(=O)=O)cc4)n3)[nH]c(=O)c12` yielded a melting point of over 300 °C.
`COc1cc(C=CC2=NN=C(C)Cc3cc(OC)c(OC)cc32)ccc1O` gave a melting point of 192 to 193 °C.
Compound `CC(C)C1CC1(O)C(=O)O` (stereo not drawn) has a melting point of 135 to 138 °C.
`COc1ccc(CC(CC(=O)O)CC(=O)O)cc1` showed a melting point of 109 to 110 °C.
`CCOC(=O)COc1ccc(C2=NNC(=O)NC2)cc1` gave a melting point of 181 to 183 °C.
